Source: ChEMBL document CHEMBL2440056, “α-Glucosidase-inhibitory iminosugars from the leaves of Suregada glomerulata” (Bioorg Med Chem, 2013)

Experiments:
[1] = Inhibition of rat intestinal alpha-glucosidase using sucrose as substrate assessed as glucose formation incubated for 10 mins prior to substrate addition measured after 30 mins by glucose oxidase method
Mus musculus [2] = assay: Hypoglycemic effect in starch-challenged ICR mouse assessed as blood glucose level at 10 mg/kg, po after 60 mins by glucose oxidase method (reference value: 243.0 +/- 29.0 mg/dL); type: functional
Mus musculus [3] = assay: Hypoglycemic effect in sucrose-challenged ICR mouse assessed as blood glucose level at 10 mg/kg, po after 120 mins by glucose oxidase method (reference value: 137.8 +/- 14.5 mg/dL); type: functional
Mus musculus [4] = assay: Hypoglycemic effect in starch-challenged ICR mouse assessed as glucose AUC at 10 mg/kg, po by glucose oxidase method (reference value: 430.1 +/- 44.7 mg.hr/dL); type: functional, organism-based; set-up: dose 10 mg/kg
Mus musculus [5] = assay: Hypoglycemic effect in starch-challenged ICR mouse assessed as blood glucose level at 10 mg/kg, po after 30 mins by glucose oxidase method (reference value: 278.9 +/- 33.5 mg/dL); type: functional
Mus musculus [6] = assay: Hypoglycemic effect in sucrose-challenged ICR mouse assessed as blood glucose level at 10 mg/kg, po after 30 mins by glucose oxidase method (reference value: 187.4 +/- 21.6 mg/dL); type: functional
Mus musculus [7] = assay: Hypoglycemic effect in sucrose-challenged ICR mouse assessed as blood glucose level at 10 mg/kg, po after 60 mins by glucose oxidase method (reference value: 183.3 +/- 29.1 mg/dL); type: functional
Mus musculus [8] = assay: Hypoglycemic effect in starch-challenged ICR mouse assessed as blood glucose level at 10 mg/kg, po after 120 mins by glucose oxidase method (reference value: 174.2 +/- 22.9 mg/dL); type: functional
Mus musculus [9] = assay: Hypoglycemic effect in sucrose-challenged ICR mouse assessed as glucose AUC at 10 mg/kg, po by glucose oxidase method (reference value: 323.2 +/- 37.2 mg.hr/dL); type: functional, organism-based; set-up: dose 10 mg/kg

| Structure (SMILES) | IC50 [1] | Activity (Mus musculus [2]) | Activity (Mus musculus [3]) | AUC (Mus musculus [4]) | Activity (Mus musculus [5]) | Activity (Mus musculus [6]) | Activity (Mus musculus [7]) | Activity (Mus musculus [8]) | AUC (Mus musculus [9]) |
| --- | --- | --- | --- | --- | --- | --- | --- | --- | --- |
| OC[C@H]1N[C@H](CO)[C@@H](O)[C@@H](O)[C@H]1O | 24.9 µM |  |  |  |  |  |  |  |  |
| CN1[C@H](CO[C@@H]2O[C@H](CO)[C@@H](O)[C@H](O)[C@H]2O)[C@H](O)[C@@H](O)[C@H](O)[C@H]1CO | 24.3 µM |  |  |  |  |  |  |  |  |
| OC[C@@H](O)[C@H]1N[C@H](CO)[C@@H](O)[C@@H]1O | 0.92 µM | 216.2 mg/dL | 136.7 mg/dL | 3.9e+06 ng·h/mL | 262.8 mg/dL | 179 mg/dL | 147.3 mg/dL | 150.3 mg/dL | 2.94e+06 ng·h/mL |
| CN1[C@H](CO)[C@@H](O)C[C@@H](O)[C@@H]1CO | 22.2 µM |  |  |  |  |  |  |  |  |
| OC[C@H]1N[C@H](CO[C@H]2O[C@H](CO)[C@@H](O)[C@H](O)[C@H]2O)[C@H](O)[C@@H](O)[C@@H]1O | 38.6 µM |  |  |  |  |  |  |  |  |
| C[C@@H]1[C@H](O)[C@@H](O)[C@H](O)[C@@H](CO)N1C | 0.72 µM |  |  |  |  |  |  |  |  |
| CN1[C@H](CO)[C@H](O)C[C@H](O)[C@H]1CO | 20 µM |  |  |  |  |  |  |  |  |
| C[C@H]1N[C@H](CO)[C@@H](O)[C@H](O)[C@H]1O | 22.1 µM |  |  |  |  |  |  |  |  |
| OCCCCCCCC[C@H]1N[C@H](CO)[C@@H](O)[C@H](O)[C@H]1O | 5.53 µM |  |  |  |  |  |  |  |  |
| C[C@H]1O[C@H](O[C@H]2[C@H](O)[C@@H](O)[C@@H](O[C@H]3[C@H](O)[C@@H](O)C(O)O[C@@H]3CO)O[C@@H]2CO)[C@H](O)[C@@H](O)[C@@H]1N[C@H]1C=C(CO)[C@@H](O)[C@H](O)[C@H]1O (stereo partly specified) [ACARBOSE] | 0.54 µM | 187.7 mg/dL | 111.9 mg/dL | 3.34e+06 ng·h/mL | 164.8 mg/dL | 114.6 mg/dL | 118.4 mg/dL | 177.5 mg/dL | 2.23e+06 ng·h/mL |
| OC[C@H]1N[C@H](CO)[C@@H](O)[C@H](O)[C@H]1O | 0.09 µM | 176.4 mg/dL | 136.4 mg/dL | 2.99e+06 ng·h/mL | 129.3 mg/dL | 126 mg/dL | 149.9 mg/dL | 161.2 mg/dL | 2.68e+06 ng·h/mL |
| CCCCN1[C@H](CO[C@@H]2O[C@H](CO)[C@@H](O)[C@H](O)[C@H]2O)[C@H](O)[C@@H](O)[C@H](O)[C@H]1CO | 22.9 µM |  |  |  |  |  |  |  |  |
| OC[C@@H]1N[C@H](CO)[C@@H](O)[C@H](O)[C@H]1O | 24.3 µM |  |  |  |  |  |  |  |  |
| OC[C@@H]1N[C@H](CO)[C@@H](O)[C@H](O)[C@@H]1O | 19.2 µM |  |  |  |  |  |  |  |  |
| CN1[C@H](CO)[C@H](O)[C@@H](O)[C@H](O)[C@H]1CO | 0.08 µM | 144.8 mg/dL | 115.6 mg/dL | 2.72e+06 ng·h/mL | 141 mg/dL | 121.4 mg/dL | 114 mg/dL | 141.2 mg/dL | 2.28e+06 ng·h/mL |
| OC[C@H]1N[C@H](CO[C@@H]2O[C@H](CO)[C@@H](O)[C@H](O)[C@H]2O)[C@H](O)[C@@H](O)[C@@H]1O | 4.22 µM | 204.1 mg/dL | 133.3 mg/dL | 3.41e+06 ng·h/mL | 187.1 mg/dL | 130.8 mg/dL | 135.1 mg/dL | 146.8 mg/dL | 2.58e+06 ng·h/mL |
